Results from ChEMBL document CHEMBL5506059, “Cyanomethylquinolones as a New Class of Potential Multitargeting Broad-Spectrum Antibacterial Agents” (J Med Chem, 2024).
Values after ≈ are worked out from the molar mass of the structure shown. Active and inactive are the calls of the source. The calls are words filed in the database; no cut-off is given here.

Experiments:
[1] = test system: Staphylococcus aureus; assay: Antibacterial activity against methicillin resistant Staphylococcus aureus clinical isolate assessed as inhibition of bacterial growth incubated for 24 hrs; format: functional
[2] = test system: Staphylococcus aureus; assay: Antibacterial activity against Staphylococcus aureus clinical isolate assessed as inhibition of bacterial growth incubated for 24 hrs; format: functional
[3] = test system: Staphylococcus aureus; assay: Antibacterial activity against Staphylococcus aureus ATCC 25923 assessed as inhibition of bacterial growth incubated for 24 hrs; format: functional
[4] = test system: Staphylococcus aureus; assay: Antibacterial activity against Staphylococcus aureus ATCC 29213 assessed as inhibition of bacterial growth incubated for 24 hrs; format: functional
[5] = test system: Enterococcus faecalis; assay: Antibacterial activity against Enterococcus faecalis clinical isolate assessed as inhibition of bacterial growth incubated for 24 hrs; format: functional
[6] = test system: Klebsiella pneumoniae; assay: Antibacterial activity against Klebsiella pneumoniae clinical isolate assessed as inhibition of bacterial growth incubated for 24 hrs; format: functional
[7] = test system: Escherichia coli; assay: Antibacterial activity against Escherichia coli clinical isolate assessed as inhibition of bacterial growth incubated for 24 hrs; format: functional
[8] = test system: Escherichia coli; assay: Antibacterial activity against Escherichia coli ATCC 25922 assessed as inhibition of bacterial growth incubated for 24 hrs; format: functional
[9] = test system: Pseudomonas aeruginosa; assay: Antibacterial activity against Pseudomonas aeruginosa clinical isolate assessed as inhibition of bacterial growth incubated for 24 hrs; format: functional
[10] = test system: Pseudomonas aeruginosa; assay: Antibacterial activity against Pseudomonas aeruginosa ATCC 27853 assessed as inhibition of bacterial growth incubated for 24 hrs; format: functional
[11] = test system: Acinetobacter baumannii; assay: Antibacterial activity against Acinetobacter baumannii clinical isolate assessed as inhibition of bacterial growth incubated for 24 hrs; format: functional
[12] = test system: Streptococcus pneumoniae; assay: Antibacterial activity against Streptococcus pneumoniae ATCC 6305 assessed as inhibition of bacterial growth incubated for 24 hrs; format: functional
[13] = test system: Streptococcus pyogenes; assay: Antibacterial activity against Streptococcus pyogenes ATCC 19615 assessed as inhibition of bacterial growth incubated for 24 hrs; format: functional
[14] = test system: Staphylococcus epidermidis; assay: Antibacterial activity against Staphylococcus epidermidis ATCC 12228 assessed as inhibition of bacterial growth incubated for 24 hrs; format: functional
[15] = test system: Staphylococcus aureus; assay: Antibacterial activity against methicillin-resistant Staphylococcus aureus ATCC 43300 assessed as inhibition of bacterial growth incubated for 24 hrs; format: functional
[16] = test system: Staphylococcus aureus; assay: Antibacterial activity against Staphylococcus aureus ATCC 12600 assessed as inhibition of bacterial growth incubated for 24 hrs; format: functional
[17] = test system: Staphylococcus aureus; assay: Antibacterial activity against Staphylococcus aureus ATCC 6538 assessed as inhibition of bacterial growth incubated for 24 hrs; format: functional
[18] = test system: Staphylococcus aureus; assay: Antibacterial activity against Staphylococcus aureus CMCC(B)26003 assessed as inhibition of bacterial growth incubated for 24 hrs; format: functional
[19] = test system: Staphylococcus aureus; assay: Antibacterial activity against Staphylococcus aureus CMCC(B)26001 assessed as inhibition of bacterial growth incubated for 24 hrs; format: functional
[20] = test system: Enterococcus faecium; assay: Antibacterial activity against Enterococcus faecium ATCC 19434 assessed as inhibition of bacterial growth incubated for 24 hrs; format: functional
[21] = test system: Enterococcus faecalis; assay: Antibacterial activity against vancomycin-resistant Enterococcus faecalis clinical isolate p1-2007226001 assessed as inhibition of bacterial growth incubated for 24 hrs; format: functional
[22] = test system: Enterococcus faecalis; assay: Antibacterial activity against vancomycin-resistant Enterococcus faecalis clinical isolate p1-2007225053 assessed as inhibition of bacterial growth incubated for 24 hrs; format: functional
[23] = test system: Streptococcus pyogenes; assay: Potency index, ratio of norfloxacin MIC to test compound MIC for antibacterial activity against Streptococcus pyogenes ATCC 19615 assessed as inhibition of bacterial growth incubated for 24 hrs; format: functional
[24] = test system: Streptococcus pyogenes; assay: Potency index, ratio of ciprofloxacin MIC to test compound MIC for antibacterial activity against Streptococcus pyogenes ATCC 19615 assessed as inhibition of bacterial growth incubated for 24 hrs; format: functional
[25] = test system: Erythrocyte; assay: Hemolytic activity in human Red blood cells assessed as concentration required for 5% hemolysis measured after 1.5 hrs by absorbance based assay; format: toxicity, cell-based
[26] = Hemolytic activity in human Red blood cells at 32 ug/ml measured after 1.5 hrs by absorbance based assay relative to control; format: toxicity, cell-based, Erythrocyte; details: red blood cells (erythrocytes), at 32 µg/mL, read-out: Activity
[27] = test system: L02; assay: Cytotoxicity against human L02 cells assessed as reduction in cell viability at 0.78 to 25 ug/ml measured after 24 hrs by MTT assay; format: toxicity, cell-based; details: l02, 24 h, dose 0.78-25 µg/ml
[28] = test system: HUVEC; assay: Cytotoxicity against HUVEC cells assessed as reduction in cell viability at 0.78 to 25 ug/ml measured after 24 hrs by MTT assay; format: toxicity, cell-based; details: human, dose 0.78-25 µg/ml
[29] = Cytotoxicity against HUVEC cells assessed as cell viability at 25 ug/ml measured after 24 hrs by MTT assay relative to control; format: toxicity, cell-based; details: human, at 25 µg/mL, read-out: Activity
[30] = Cytotoxicity against human normal Squamous epithelial cell (NOK) assessed as inhibition of cell growth measured after 24 hrs by MTT assay; format: toxicity, cell-based; details: normal squamous epithelial cells (NOK)
[31] = Cytotoxicity against human FHC assessed as inhibition of cell growth measured after 24 hrs by MTT assay; format: toxicity, cell-based; details: FHC cells
[32] = Cytotoxicity against human FHC assessed as cell viability at 20 ug/ml measured after 24 hrs by MTT assay relative to control; format: toxicity, cell-based; details: FHC cells, at 20 µg/mL, read-out: Activity
[33] = test system: Staphylococcus aureus; assay: Resistance development in methicillin resistant Staphylococcus aureus assessed as increase in MIC measured after 20 days; format: functional, organism-based; details: time 20.0 day
[34] = test system: Pseudomonas aeruginosa; assay: Resistance development in Pseudomonas aeruginosa assessed as increase in MIC measured after 20 days; format: functional, organism-based; details: time 20.0 day
[35] = test system: Calf thymus DNA; assay: Binding affinity to calf thymus DNA assessed as DNA-compound complex formation by measuring hypochromism at 0 to 2.3 x 10^-8mol/L by UV absorption spectra based analysis; format: nucleic-acid assay; details: Bos taurus; dose 0-2.3 10^-8mol/L
[36] = test system: Calf thymus DNA; assay: Competitive binding affinity to calf thymus DNA assessed as displacement of neutral red from DNA-neutral red complex by measuring reduction in absorbance at 540 nm at 0 to 2.1x10^-8 mol/L by UV absorption spectroscopy; format: nucleic-acid assay; details: Bos taurus; dose 0-2.1 10^-8mol/L
[37] = test system: Calf thymus DNA; assay: Binding affinity to calf thymus DNA assessed as DNA-compound complex formation by measuring increase in absorption of DNA at 260 nm at 0 to 2.3 x 10^-8mol/L by UV absorption spectra based analysis; format: nucleic-acid assay; details: Bos taurus; dose 0-2.3 10^-8mol/L
[38] = test system: Calf thymus DNA; assay: Binding affinity to calf thymus DNA assessed as disruption of DNA confirmation by measuring blue shift at 0 to 2.3 x 10^-8mol/L by UV absorption spectra based analysis; format: nucleic-acid assay; details: Bos taurus; dose 0-2.3 10^-8mol/L
[39] = test system: Staphylococcus aureus; assay: Resistance development in methicillin resistant Staphylococcus aureus assessed as fold increase in MIC measured after 20 days relative to control; format: functional; details: time 20 day
[40] = test system: Pseudomonas aeruginosa; assay: Resistance development in Pseudomonas aeruginosa assessed as fold increase in MIC measured after 20 days relative to control; format: functional; details: time 20 day

Work on `N#CCc1cc2c(cc1F)c(=O)c(C(=O)O)cn2Cc1ccccc1Cl` yielded an MIC [1] of 256 µg/mL (≈ 690 µM), an MIC [2] of 256 µg/mL (≈ 690 µM) and an MIC [3] of 0.25 µg/mL (≈ 0.674 µM). For the same compound, the MIC [4] was 0.25 µg/mL (≈ 0.674 µM), the MIC [5] was 256 µg/mL (≈ 690 µM) and the MIC [6] was 2 µg/mL (≈ 5.39 µM). For the same compound, the MIC [7] was 0.25 µg/mL (≈ 0.674 µM), the MIC [8] was 0.25 µg/mL (≈ 0.674 µM) and the MIC [9] was 0.25 µg/mL (≈ 0.674 µM). The MIC [10] was 0.5 µg/mL (≈ 1.35 µM), the MIC [11] was 0.5 µg/mL (≈ 1.35 µM) and the MIC [12] was 16 µg/mL (≈ 43.2 µM). It also gave an MIC [13] of 0.25 µg/mL (≈ 0.674 µM), an MIC [14] of 0.25 µg/mL (≈ 0.674 µM) and an MIC [15] of 4 µg/mL (≈ 10.8 µM). The MIC [16] was 128 µg/mL (≈ 345 µM), the MIC [17] was 4 µg/mL (≈ 10.8 µM) and the MIC [18] was 0.125 µg/mL (≈ 0.337 µM). For the same compound, the MIC [19] was 0.25 µg/mL (≈ 0.674 µM), the MIC [20] was 4 µg/mL (≈ 10.8 µM) and the MIC [21] was 64 µg/mL (≈ 173 µM). The MIC [22] was 128 µg/mL (≈ 345 µM), the Ratio [23] was 128 and the Ratio [24] was 64. For the same compound, the HC5 [25] was 64 µg/mL, the hemolysis at 1.5 h, 32 ug/ml [26] was 4% and the Activity [27] was “Non-Toxic”. The Activity [28] was “Non-Toxic”, the viability at 24 h, 25 ug/ml [29] was over 90% and the IC50 at 24 h [30] was 1.38 µg/mL (≈ 3.72 µM). For the same compound, the IC50 at 24 h [31] was 141 µg/mL (≈ 380 µM), the viability at 24 h, 20 ug/ml [32] was over 80% and the Activity [33] was “inactive”. For the same compound, the Activity [34] was “inactive”, the Activity [35] was “Active” and the Activity [36] was “Active”. The Activity [37] was “Active” and the Activity [38] was “Active”.
`NC1CCN(c2c(F)cc3c(=O)c(C(=O)O)cn(C4CC4)c3c2Cl)C1` (stereo unspecified) [CLINAFLOXACIN] showed an MIC [1] of 1 µg/mL (≈ 2.73 µM), an MIC [2] of 0.5 µg/mL (≈ 1.37 µM) and an MIC [3] of 0.5 µg/mL (≈ 1.37 µM). The MIC [4] was 0.5 µg/mL (≈ 1.37 µM), the MIC [5] was 4 µg/mL (≈ 10.9 µM) and the MIC [6] was 0.5 µg/mL (≈ 1.37 µM). The MIC [7] was 0.25 µg/mL (≈ 0.683 µM), the MIC [8] was 0.25 µg/mL (≈ 0.683 µM) and the MIC [9] was 0.5 µg/mL (≈ 1.37 µM). The MIC [10] was 0.5 µg/mL (≈ 1.37 µM), the MIC [11] was 0.5 µg/mL (≈ 1.37 µM) and the “fold change (FC)” value [39] was 8. For the same compound, the “fold change (FC)” value [40] was 16.
